Our source for the MIC50 and MIC values is patent US20240018121A1, “NOVEL HETEROAROMATIC COMPOUNDS EXHIBITING ANTIFUNGAL ACTIVITY AND THEIR METHOD OF USE” (FOX CHASE CHEMCIAL DIVERSITY CENTER, INC., priority 2020, published 2024).

Converted amounts (≈) assume the structure as drawn. Where a name gives a salt, the structure may show the parent alone. Read-outs that look alike come from different tables or passages of the source. Where only a bound is given, the exact number is not on record here.

Holding throughout (format): cell-based
Assay [1] relates to Mucor ramosissimus 057718 (ATCC 90286). The assay can be described thus: Fungal MIC Protocol, Mucor ramosissimus (MIC-50). The settings on record: Mucor ramosissimus, read-out: MIC-50 Mucorales ramosissimus 90286. The method, then: (§1) Fungal MIC Protocol: RPMI/MOPS media (Roswell Park Memorial Institute/3-morpholinopropane-1-sulfonic acid media) is prepared by dissolving 8.4 grams RPMI […] (Sigma cat #R1383), 34.52 grams MOPS buffer (Sigma cat #M3.183) and 2 […] glucose in 900 mL deionized water. The pH is adjusted to 7.0 with NaOH and filter sterilized. 0.1 mL, of a stock spore suspension (or loop from frozen stock) is inoculated to a 75 mL tissue culture flask (Falcon cat #353136) containing 50 mL of Potato Dextrose Agar (PDA, 24 grams PD broth (Fisher cat #DF 0549179), 20 grams agar (Fisher cat #BP 1423500) per liter water). Aspergillus and Fusarium strains are grown at 35° C. and Mucor strains are grown at room temperature for 3-5 days. Spores are harvested by flooding the flask with 5 mL phosphate buffered saline (PBS) pH 7.4+0.1% Tween-20 and several glass beads (Fisher cat #S800243) are added to aid in agitation. The supernatant is removed and the OD530 of a 1:100 dilution is measured. Spores are diluted in RPMI/MOPS to a final OD530 of 0.002 for Aspergillus and an OD530 of 0.005 for Fusarium and Mucor. The final concentration of spores is approximately 2×10^4 cfu/mL. Test compound(s) are diluted to 200 ug/mL in RPMI/MOPS ([…]). Ten (10) serial dilutions are prepared with RPMI/MOPS in a 96-well round bottom plate (Fisher cat #353136). For Mucor strains a sterile flat-bottom 96-well plate is used. 50 μl of compound dilutions in duplicate are added to a sterile 96-well round bottom plate. 50 ul of diluted spores are added to the compound-containing plates. Control wells include 1) compound but no cells and 2) spores but no compound. Mix the plates gently by hand, place in ziplock bags and
(§2) incubate at 35° C. for 48 hours. Score the MIC visually (lowest concentration of compound showing >50% growth inhibition) using an inverted mirror.

Assay [2] relates to Fusarium falciforme FS1 (ATCC MYA-3636). The assay can be described thus: Fungal MIC Protocol, Fusarium falciforme. The settings on record: Fusarium falciforme, read-out: MIC Fusarium falciforme 3636. The method, then:
as §1
(§3) incubate at 35° C. for 48 hours. […]

The test system of assay [3] is Mucor circinelloides 1463(62) (ATCC 26759). Put plainly: Fungal MIC Protocol, Mucor circinelloides (MIC-50). To be noted: Mucor circinelloides, read-out: MIC-50 Mucorales circinelloides 26579. As for the experimental part: as §1, §2
The subject of assay [4] is Aspergillus flavus AFL1 (ATCC MYA-3631). The assay can be described thus: Fungal MIC Protocol, Aspergillus flavus. The settings on record: Aspergillus flavus, read-out: MIC Aspergillus flavus 3631. As for the experimental part: as §1, §3
Assay [5] relates to Fusarium solani (ATCC 58877). The assay can be described thus: Fungal MIC Protocol, Fusarium solani. To be noted: Fusarium solani, read-out: MIC Fusarium solani 58877. As for the experimental part:
as §1, §3

For assay [6], the system named is Aspergillus fumigatus T33439 (ATCC MYA-3626). The assay can be described thus: Fungal MIC Protocol, Aspergillus fumigatus. The settings on record: Aspergillus fumigatus, read-out: MIC Aspergillus fumigatus 3626. The method, then:
as §1, §3

Where [7] appears, read: ATCC90286, 50% growth inhibition at 48 hours.
Setting [8] is: 100% growth inhibition at 48 hours.
[9] abbreviates: ATCC26759, 50% growth inhibition at 48 hours.
Setting [10] is: ATCC58877, 100% growth inhibition at 48 hours.

With `N=C(N)N1CC=C(c2ccc(-c3nnc(-c4ccc(C5=CCN(C(=N)N)CC5)cc4F)n3Cc3ccccc3)c(F)c2)CC1` [Example 18], the MIC50 in assay [1] (setting [7]) and in assay [3] (setting [9]) was 0.78 mg/L (≈ 1.31 µM) throughout. For the same compound, the MIC in assay [2] (setting [8]) was < 0.1 mg/L; in assay [4] (setting [8]) it was 0.78 mg/L (≈ 1.31 µM); in assay [5] (setting [10]), 0.39 mg/L (≈ 0.657 µM); in assay [6] (setting [8]) it was 0.39 mg/L (≈ 0.657 µM).
For the compound `CC(C)Nc1cc(C2=CCN(C(=N)N)CC2)ccc1-c1nnc(-c2ccc(C3=CCN(C(=N)N)CC3)cc2F)n1C(C)C` [Example 26, 4-(4-(5-(4-(1-Carbamimidoyl-1,2,3,6-tetrahydropyridin-4-yl)-2-(isopropylamino)phenyl)-4-isopropyl-4H-1,2,4-triazol-3-yl)-3-fluorophenyl)-5,6-dihydro pyridine-1(2H)-carboximidamide], the MIC50 turned out to be 100 mg/L (≈ 171 µM) in assay [1] (setting [7]) and 12.5 mg/L (≈ 21.4 µM) in assay [3] (setting [9]). Besides, the MIC amounted to 12.5 mg/L (≈ 21.4 µM) in assay [4] (setting [8]) and 100 mg/L (≈ 171 µM) in assay [6] (setting [8]).
`Cn1c(-c2ccc(C3=CCN(C(=N)N)C3)cc2F)nnc1-c1ccc(C2=CCN(C(=N)N)C2)cc1F` [Example 28, 3,3′-(4,4′-(4-Methyl-4H-1,2,4-triazole-3,5-diyl)bis(3-fluoro-4,1-phenylene)) bis(2,5-dihydro-1H-pyrrole-1-carboximidamide)]: the MIC50 in assay [1] (setting [7]) and in assay [3] (setting [9]) was > 100 mg/L in each case. Also, the MIC in assay [2] (setting [8]), in assay [4] (setting [8]), in assay [5] (setting [10]) and in assay [6] (setting [8]) was < 0.1 mg/L each time.
With `CC(C)(O)Cn1c(-c2ccc(C3=CCN(C(=N)N)CC3)cc2F)nnc1-c1ccc(C2=CCN(C(=N)N)CC2)cc1F` [Example 74, 4-(4-{5-[4-(1-carbamimidoyl-1,2,3,6-tetrahydropyridin-4-yl)-2-fluorophenyl]-4-(2-hydroxy-2-methylpropyl)-4H-1,2,4-triazol-3-yl}-3-fluorophenyl)-1,2,3,6-tetrahydropyridine-1-carboximidamide hydrochloride], the MIC50 came out at 3.13 mg/L in assay [1] (ATCC90286, 48 h) and 1.56 mg/L in assay [3] (ATCC26759, 48 h). Besides, the MIC in assay [2] (48 h) came to 0.1 mg/L; in assay [4] (48 h), 0.78 mg/L; in assay [5] (ATCC58877, 48 h), 0.1 mg/L; in assay [6] (48 h), 0.39 mg/L.
Take `CC(O)Cn1c(-c2ccc(C3=CCN(C(=N)N)CC3)cc2F)nnc1-c1ccc(C2=CCN(C(=N)N)CC2)cc1F` (stereo not shown) [Example 66, 4-(4-{5-[4-(1-carbamimidoyl-1,2,3,6-tetrahydropyridine-4-yl)-2-fluorophenyl]-4-(2-hydroxypropyl)-4H-1,2,4-triazol-3-yl}-3-fluorophenyl)-1,2,3,6-tetrahydropyridine-1-carboximidamide trifluoroacetate]: the MIC50 was 6.25 mg/L in assay [1] (ATCC90286, 48 h) and 1.56 mg/L in assay [3] (ATCC26759, 48 h). The MIC was 0.1 mg/L in assay [2] (48 h); 0.39 mg/L in assay [4] (48 h); 0.2 mg/L in assay [5] (ATCC58877, 48 h); 0.2 mg/L in assay [6] (48 h).
`N=C(N)N1CC=C(c2ccc(-c3nnc(-c4ccc(C5=CCN(C(=N)N)CC5)cc4)n3Cc3ccccc3)cc2)CC1` [Example 5, 4,4′-(4,4′-(4-Benzyl-4H-1,2,4-triazole-3,5-diyl)bis(4,1-phenylene))bis(5,6-dihydropyridine-1(2H)-carboximidamide)]: the values for the MIC50 in assay [1] (setting [7]) and in assay [3] (setting [9]) were 6.25 mg/L (≈ 11.2 µM) and 1.56 mg/L (≈ 2.8 µM), respectively. The MIC in assay [2] (setting [8]) was < 0.1 mg/L; in assay [4] (setting [8]), 1.56 mg/L (≈ 2.8 µM); in assay [5] (setting [10]) it was 0.39 mg/L (≈ 0.699 µM); in assay [6] (setting [8]), 0.39 mg/L (≈ 0.699 µM).
`COc1cc(C2=CCN(C(=N)N)CC2)ccc1-c1nnc(-c2ccc(C3=CCN(C(=N)N)CC3)cc2OC)n1CCO` [Example 75, 4-(4-{5-[4-(1-carbamimidoyl-1,2,3,6-tetrahydropyridin-4-yl)-2-methoxyphenyl]-4-(2-hydroxyethyl)-4H-1,2,4-triazol-3-yl}-3-methoxyphenyl)-1,2,3,6-tetrahydropyridine-1-carboximidamide trifluoroacetate]: the MIC50 was found to be 25 mg/L in assay [1] (ATCC90286, 48 h) and 25 mg/L in assay [3] (ATCC26759, 48 h). In addition, the MIC in assay [2] (48 h) is 1.56 mg/L; in assay [4] (48 h), 3.13 mg/L; in assay [5] (ATCC58877, 48 h), 0.39 mg/L; in assay [6] (48 h), 1.56 mg/L.
Take `Cn1c(-c2ccc(C3=CCC(NC(=N)N)CC3)cc2F)nnc1-c1ccc(C2=CCC(NC(=N)N)CC2)cc1F` (stereo not shown) [Example 40, 1-[4-(4-{5-[4-(4-Carbamimidamidocyclohex-1-en-1-yl)-2-fluorophenyl]-4-methyl-4H-1,2,4-triazol-3-yl}-3-fluorophenyl)cyclohex-3-en-1-yl]guanidine]: the MIC50 in assay [1] (setting [7]) amounted to 50 mg/L (≈ 91.6 µM); in assay [3] (setting [9]), 6.25 mg/L (≈ 11.5 µM). Moreover, the minimum inhibitory concentration (MIC) worked out at 1.56 mg/L (≈ 2.86 µM) in assay [2] (setting [8]), 6.25 mg/L (≈ 11.5 µM) in assay [4] (setting [8]), 1.56 mg/L (≈ 2.86 µM) in assay [5] (setting [10]) and 6.25 mg/L (≈ 11.5 µM) in assay [6] (setting [8]).
For the compound `COCCOCCn1c(-c2ccc(C3=CCN(C(=N)N)CC3)cc2F)nnc1-c1ccc(C2=CCN(C(=N)N)CC2)cc1F` [Example 81, 4-(4-{5-[4-(1-carbamimidoyl-1,2,3,6-tetrahydropyridin-4-yl)-2-fluorophenyl]-4-[2-(2-methoxyethoxy)ethyl]-4H-1,2,4-triazol-3-yl}-3-fluorophenyl)-1,2,3,6-tetrahydropyridine-1-carboximidamide], the MIC50 in assay [1] (setting [7]) stood at 6.25 mg/L (≈ 10.3 µM); in assay [3] (setting [9]), 1.56 mg/L (≈ 2.58 µM). Besides, the MIC amounted to 0.1 mg/L (≈ 0.165 µM) in assay [2] (setting [8]), 0.78 mg/L (≈ 1.29 µM) in assay [4] (setting [8]), 0.1 mg/L (≈ 0.165 µM) in assay [5] (setting [10]) and 0.39 mg/L (≈ 0.644 µM) in assay [6] (setting [8]).
Turning to `N=C(N)N1CC=C(c2ccc(-c3nnc(-c4ccc(C5=CCN(C(=N)N)CC5)cc4)n3C3CC3)cc2)CC1` [Example 4, 4,4′-(4,4′-(4-Cyclopropyl-4H-1,2,4-triazole-3,5-diyl)bis(4,1-phenylene)) bis(5,6-dihydropyridine-1(2H)-carboximidamide)], the MIC50 came out at 1.56 mg/L (≈ 3.07 µM) in assay [1] (setting [7]) and 0.39 mg/L (≈ 0.768 µM) in assay [3] (setting [9]). The minimal inhibitory concentration (MIC) in assay [2] (setting [8]) was < 0.1 mg/L; in assay [4] (setting [8]), 0.39 mg/L (≈ 0.768 µM); in assay [5] (setting [10]) it was 0.2 mg/L (≈ 0.394 µM); in assay [6] (setting [8]) it was < 0.1 mg/L.
Consider `COc1cc(-c2nnc(-c3ccc(C4=CCN(C(=N)N)CC4)c(OC)c3)n2CCO)ccc1C1=CCN(C(=N)N)CC1` [Example 76, 4-(4-{5-[4-(1-carbamimidoyl-1,2,3,6-tetrahydropyridin-4-yl)-3-methoxyphenyl]-4-(2-hydroxyethyl)-4H-1,2,4-triazol-3-yl}-2-methoxyphenyl)-1,2,3,6-tetrahydropyridine-1-carboximidamide trifluoroacetate], for which the MIC50 in assay [1] (ATCC90286, 48 h) was determined as 25 mg/L; in assay [3] (ATCC26759, 48 h), 25 mg/L. The minimal inhibitory concentration (MIC) is 0.78 mg/L in assay [2] (48 h); 3.13 mg/L in assay [4] (48 h); 0.39 mg/L in assay [5] (ATCC58877, 48 h); 0.78 mg/L in assay [6] (48 h).
Consider `N=C(N)N1CC=C(c2ccc(-c3nnc(-c4ccc(C5=CCN(C(=N)N)CC5)c(C(F)(F)F)c4)n3CCO)cc2C(F)(F)F)CC1` [Example 80, 4-(4-{5-[4-(1-carbamimidoyl-1,2,3,6-tetrahydropyridin-4-yl)-3-(trifluoromethyl)phenyl]-4-(2-hydroxyethyl)-4H-1,2,4-triazol-3-yl}-2-(trifluoromethyl)phenyl)-1,2,3,6-tetrahydropyridine-1-carboximidamide hydrochloride], for which the MIC50 in assay [1] (ATCC90286, 48 h) was found to be 25 mg/L; in assay [3] (ATCC26759, 48 h), 25 mg/L. Moreover, the MIC in assay [2] (48 h) came to 25 mg/L; in assay [4] (48 h), 25 mg/L; in assay [5] (ATCC58877, 48 h) it was 25 mg/L; in assay [6] (48 h), 25 mg/L.
